From patent US20260184708A1, “PYRIDAZINONES AND METHODS OF USE THEREOF” (GFB (ABC), LLC, priority 2017, published 2026)
Where two headings read alike, the source gives them in different places.

Biological target: T1, TRPC5 (Homo sapiens, UniProt Q9UL62)
T1 construct: expressed in transfected cells; host or cells: HEK 293
T1 sequence (Q9UL62 1-973): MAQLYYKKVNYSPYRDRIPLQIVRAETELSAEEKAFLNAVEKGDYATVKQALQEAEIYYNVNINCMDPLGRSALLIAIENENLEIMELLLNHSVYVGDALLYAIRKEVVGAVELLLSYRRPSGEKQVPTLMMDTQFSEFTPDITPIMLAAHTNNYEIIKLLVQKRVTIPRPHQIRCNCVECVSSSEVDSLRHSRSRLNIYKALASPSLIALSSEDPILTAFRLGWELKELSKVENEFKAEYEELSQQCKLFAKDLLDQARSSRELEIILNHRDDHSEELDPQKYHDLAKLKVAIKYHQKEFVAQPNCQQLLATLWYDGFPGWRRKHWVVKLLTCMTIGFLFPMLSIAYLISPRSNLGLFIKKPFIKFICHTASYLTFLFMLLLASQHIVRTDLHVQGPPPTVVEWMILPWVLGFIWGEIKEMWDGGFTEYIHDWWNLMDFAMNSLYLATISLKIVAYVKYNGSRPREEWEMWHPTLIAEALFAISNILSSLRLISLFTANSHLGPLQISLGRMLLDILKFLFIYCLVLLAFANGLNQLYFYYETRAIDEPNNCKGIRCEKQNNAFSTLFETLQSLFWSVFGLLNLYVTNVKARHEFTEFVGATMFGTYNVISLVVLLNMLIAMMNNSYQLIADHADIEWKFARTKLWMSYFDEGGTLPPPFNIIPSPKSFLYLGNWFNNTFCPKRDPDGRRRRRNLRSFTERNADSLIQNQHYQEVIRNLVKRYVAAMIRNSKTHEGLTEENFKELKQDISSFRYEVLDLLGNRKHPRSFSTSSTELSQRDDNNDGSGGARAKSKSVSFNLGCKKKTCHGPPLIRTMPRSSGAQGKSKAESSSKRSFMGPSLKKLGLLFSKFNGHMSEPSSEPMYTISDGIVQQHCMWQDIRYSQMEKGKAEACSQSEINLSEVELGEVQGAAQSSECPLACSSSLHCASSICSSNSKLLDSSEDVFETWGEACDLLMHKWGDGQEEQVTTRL
Assay: TRPC5 automated patch clamp assay (Qpatch), current block after rosiglitazone stimulation
Format: cell-based
Details: HEK293 cells overexpressing TRPC5, rosiglitazone stimulation
Description: HEK 293 cells expressing human TRPC5 were harvested, re-suspended in serum free medium, and added to the automated platform and used within 2-3 hours. Internal and external physiological solutions were freshly prepared prior to the assay. The external solution contained: 145 mM NaCl, 4 mM KCl, 2 mM CaCl2), 1 mM MgCl2, 10 mM HEPES, 10 mM glucose, pH 7.4 with NaOH and 300 mOsm/L. The internal solution contained 120 mM L-aspartic acid, 120 mM CsOH·H2O, 20 mM CsCl, 2 mM MgCl2, 8.8 mM CaCl2), 10 mM EGTA, 10 mM HEPES, 10 mM Glucose, 0.1 mM GTP and 2 mM Na2ATP; pH 7.2 with CsOH and 290 mOsm/L. The free internal Ca2+ concentration was buffered to 1 μM.
The automated electrophysiological platform QPatch 16 from Sophion (Denmark) was used to carry out the compounds profiling. The series resistance and quality of seals were continuously monitored during the experiments. Data was analyzed using Sophion QPatch assay software 5.6 (Odense). IC50 values were calculated using a least squares regression algorithm (Hill equation).
To monitor the ion currents, a voltage ramp from −100 mV to +100 mV, over 300 ms, was applied every 10 seconds, from a holding potential of −60 mV.
After recording for a minimum of 60 seconds control period, Rosiglitazone (30 uM), was applied to activate the channel.

[1] = Table 5, 80 mV, read-out: TRPC5_QP_ XC50_80
[2] = Table 5, 100 mV, read-out: TRPC5_QP_ XC50_100
[3] = 80 mV, read-out: TRPC5_QP XC50_80
[4] = 100 mV, read-out: TRPC5_QP XC50_100
[5] = Table 4, 80 mV, read-out: TRPC5_QP_ XC50_80
[6] = Table 4, 100 mV, read-out: TRPC5_QP_ XC50_100
[7] = Table 3, 80 mV, read-out: TRPC5_QP_ XC50_80
[8] = Table 3, 100 mV, read-out: TRPC5_QP_ XC50_100

Question: For `O=C1CN(c2cn[nH]c(=O)c2Cl)CCN1Cc1ccc(OC(F)(F)F)cc1`, which IC50 [1] is on record?
Answer: The IC50 was 1 to 5 µM.

Question: What about the IC50 [2] of the same compound?
Answer: The IC50 was 1 to 5 µM.

Question: With `O=c1[nH]ncc(N2CCN(Cc3ccccc3)C3(CC3)C2)c1Br` as the compound, how does the IC50 [3] read?
Answer: The IC50 was 10 to 500 µM.

Question: What about the IC50 [4] of the same compound?
Answer: The IC50 was 10 to 500 µM.

Question: With `O=c1[nH]ncc(N2CCN(Cc3ccccc3C(F)(F)F)CC2)c1Cl` [drawing 699] as the compound, how does the IC50 [5] read?
Answer: Its IC50 is 1 to 5 µM.

Question: And the IC50 [6]?
Answer: The IC50 was 1 to 5 µM.

Question: With `O=C1CN(c2cn[nH]c(=O)c2Cl)CCN1Cc1ccc(F)cc1F` [drawing 686] as the compound, how does the IC50 [7] read?
Answer: The IC50 was 1 to 5 µM.

Question: What about the IC50 [8] of the same compound?
Answer: Its IC50 is 1 to 5 µM.

Question: Which results are given for `CCN(CC)C(=O)CN1CCN(c2cn[nH]c(=O)c2Cl)[C@H](C)C1`?
Answer: IC50 [5]: 10 to 500 µM; IC50 [6]: 10 to 500 µM

Question: `O=c1[nH]ncc(N2CCOC(Cc3ccccc3)C2)c1Cl` (stereo not drawn) was tested. Which IC50 [5] did it give?
Answer: Its IC50 is 10 to 500 µM.

Question: And the IC50 [6]?
Answer: Its IC50 is 10 to 500 µM.

Question: Which results are given for `Cn1ccnc1CN1CCN(c2cn[nH]c(=O)c2Br)CC1`?
Answer: IC50 [7]: 10 to 500 µM; IC50 [8]: 10 to 500 µM

Question: For `O=c1[nH]ncc(N2CCN(Cc3ccc(F)cc3F)CC2)c1Cl`, which IC50 [7] is on record?
Answer: Its IC50 is 5 to 10 µM.

Question: And the IC50 [8]?
Answer: Its IC50 is 5 to 10 µM.

Question: For `C=Cc1n[nH]c(=O)c(Cl)c1N1CCN(Cc2ccc(F)cc2C)CC1`, which IC50 [1] is on record?
Answer: Its IC50 is 10 to 500 µM.

Question: What about the IC50 [2] of the same compound?
Answer: The IC50 was 10 to 500 µM.

Question: `CS(=O)(=O)c1ccc(CN2CCN(c3cn[nH]c(=O)c3Cl)CC2=O)cc1` was tested. Which IC50 [1] did it give?
Answer: Its IC50 is 10 to 500 µM.

Question: And the IC50 [2]?
Answer: Its IC50 is 10 to 500 µM.

Question: Which IC50 [7] does the source give for `Cc1ccccc1CN1CC2(CCN(c3cn[nH]c(=O)c3Br)C2)C1` here?
Answer: The IC50 was 10 to 500 µM.

Question: What about the IC50 [8] of the same compound?
Answer: The IC50 was 10 to 500 µM.

Question: `O=c1[nH]ncc(N2CCN(Cc3cccc(C(F)(F)F)c3)CC2)c1Cl` was tested. Which IC50 [7] did it give?
Answer: Its IC50 is 1 to 5 µM.

Question: And the IC50 [8]?
Answer: Its IC50 is 1 to 5 µM.

Question: Which results are given for `CN(C)C(=O)CN1CCN(c2cn[nH]c(=O)c2Cl)CC1` [drawing 708]?
Answer: IC50 [5]: 10 to 500 µM; IC50 [6]: 10 to 500 µM

Question: Which results are given for `CCn1nc(CN2CCN(c3cn[nH]c(=O)c3Cl)CC2)c2ccccc21`?
Answer: IC50 [1]: 10 to 500 µM; IC50 [2]: 10 to 500 µM

Question: With `Cn1ncc2c(CN3CCN(c4cn[nH]c(=O)c4Cl)CC3=O)cccc21` as the compound, how does the IC50 [5] read?
Answer: Its IC50 is 1 to 5 µM.

Question: And the IC50 [6]?
Answer: Its IC50 is 1 to 5 µM.

Question: What does the source list for `Cc1ccccc1C(=O)N1CCN(c2cn[nH]c(=O)c2Br)CC1`?
Answer: IC50 [3]: 5 to 10 µM; IC50 [4]: 5 to 10 µM

Question: How did the IC50 [7] turn out when `Cc1ccccc1CN1CCN(c2cn[nH]c(=O)c2Br)CC1C` (stereo not drawn) [drawing 649] was run?
Answer: The IC50 was 10 to 500 µM.

Question: What about the IC50 [8] of the same compound?
Answer: Its IC50 is 10 to 500 µM.

Question: Which IC50 [1] does the source give for `Cc1cc(F)ccc1CN1CCN(c2c(Br)n[nH]c(=O)c2Cl)CC1` here?
Answer: Its IC50 is 10 to 500 µM.

Question: What about the IC50 [2] of the same compound?
Answer: Its IC50 is 10 to 500 µM.

Question: For `O=c1[nH]ncc(N2CCc3c(ncn3Cc3ccccc3)C2)c1Cl` [drawing 831], which IC50 [1] is on record?
Answer: Its IC50 is 1 to 5 µM.

Question: And the IC50 [2]?
Answer: Its IC50 is 1 to 5 µM.

Question: What does the source list for `O=C1CN(c2cn[nH]c(=O)c2C(F)(F)F)CCN1Cc1ccccc1C(F)(F)F`?
Answer: IC50 [1]: 1 to 5 µM; IC50 [2]: 1 to 5 µM

Question: With `Cc1ccccc1CN1CCN(c2cn[nH]c(=O)c2C2CC2)CC1=O` as the compound, how does the IC50 [5] read?
Answer: Its IC50 is 1 to 5 µM.

Question: What about the IC50 [6] of the same compound?
Answer: The IC50 was 1 to 5 µM.

Question: Which IC50 [5] does the source give for `C[C@H](c1ccccc1)N1CCN(c2cn[nH]c(=O)c2Cl)CC1` here?
Answer: The IC50 was 1 to 5 µM.

Question: And the IC50 [6]?
Answer: The IC50 was 1 to 5 µM.

Question: With `Cc1ccccc1CN1CCN(c2cn[nH]c(=O)c2Cl)CC1=O` [drawing 664] as the compound, how does the IC50 [7] read?
Answer: The IC50 was 1e-05 to 1 µM.

Question: And the IC50 [8]?
Answer: The IC50 was 1e-05 to 1 µM.

Question: Which results are given for `O=c1[nH]ncc(N2CCN(Cc3cccc4ccccc34)CC2)c1Cl`?
Answer: IC50 [5]: 1 to 5 µM; IC50 [6]: 1 to 5 µM

Question: Which results are given for `CC(C)=Cc1c(N2CCN(Cc3ccccc3C)C(=O)C2)cn[nH]c1=O`?
Answer: IC50 [5]: 10 to 500 µM; IC50 [6]: 10 to 500 µM

Question: What does the source list for `C=Cc1c(N2CCN(Cc3ccccc3C)C(=O)C2)cn[nH]c1=O`?
Answer: IC50 [5]: 1 to 5 µM; IC50 [6]: 1 to 5 µM

Question: `O=c1[nH]ncc(N2CCN(C3(c4ccccc4)CC3)CC2)c1Cl` was tested. Which IC50 [5] did it give?
Answer: The IC50 was 5 to 10 µM.

Question: And the IC50 [6]?
Answer: Its IC50 is 5 to 10 µM.

Question: Which results are given for `Cc1ccccc1S(=O)(=O)N1CCN(c2cn[nH]c(=O)c2Br)CC1`?
Answer: IC50 [3]: 10 to 500 µM; IC50 [4]: 10 to 500 µM

Question: Which IC50 [1] does the source give for `Cn1nc(CN2CCN(c3cn[nH]c(=O)c3Cl)CC2)c2ccccc21` here?
Answer: Its IC50 is 5 to 10 µM.

Question: What about the IC50 [2] of the same compound?
Answer: Its IC50 is 10 to 500 µM.

Question: Which IC50 [5] does the source give for `Cc1ncccc1CN1CCN(c2cn[nH]c(=O)c2Cl)CC1` [drawing 719] here?
Answer: The IC50 was 1e-05 to 1 µM.

Question: And the IC50 [6]?
Answer: The IC50 was 1e-05 to 1 µM.
